The subject of test [1] is TNFα production in LPS-stimulated human monocytes. Briefly: Cot Monocyte TNFα Cell Based Assay. The conditions noted are these: Homo sapiens, Monocyte, TNFα in LPS-stimulated human monocytes; read-out: EC50 TNF. In a few lines:
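TR-FRET read-out of total secreted TNFα, normalized as % control (unstimulated = 0%, LPS-stimulated = 100%). Cells (5,000/well) were exposed to compound 1 h at 37 °C, then to 50 pg/ml LPS for a further 4 h.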

The target of test [2] is T1, human Cot catalytic domain (30-397 amino acids) (Homo sapiens, UniProt P41279).
T1 construct: Purified recombinant human Cot catalytic domain (30-397 amino acids) was purchased from Cama Biosciences; purchased Cama Biosciences (so in the source)
Briefly: High Throughput Cot Biochemical Assay (KinEASE TR-FRET). The conditions noted are these: Cot biochemical HTRF (KinEASE TR-FRET) assay; read-out: IC50 HTRF. In a few lines:
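TR-FRET readout: Eu-labeled phospho-specific antibody binds XL665-tagged STK3 peptide after phosphorylation by Cot (aa 30-397, 5 nM). Conditions: 400 μM ATP, 1 μM peptide, MOPS pH 7.0 buffer with MgOAc, DTT, BSA, NP-40, glycerol; 0.1% DMSO.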
On the technique in general: In TR-FRET formats the signal depends on donor and acceptor labels being close together.

Where only a bound is given, the exact number is not on record here.

T1 sequence (P41279 30-397): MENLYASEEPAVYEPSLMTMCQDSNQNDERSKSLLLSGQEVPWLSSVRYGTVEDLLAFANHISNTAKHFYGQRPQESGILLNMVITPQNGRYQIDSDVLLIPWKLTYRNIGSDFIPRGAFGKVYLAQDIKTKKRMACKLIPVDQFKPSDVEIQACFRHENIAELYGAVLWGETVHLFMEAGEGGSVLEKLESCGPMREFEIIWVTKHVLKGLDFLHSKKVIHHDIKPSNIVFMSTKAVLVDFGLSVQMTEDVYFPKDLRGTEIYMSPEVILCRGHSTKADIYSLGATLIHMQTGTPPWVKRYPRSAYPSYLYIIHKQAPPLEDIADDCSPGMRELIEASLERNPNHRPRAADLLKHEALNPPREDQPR

Turning to `CC(=O)N(C)c1cccc([C@H](Nc2cc(Cl)c3ncc(C#N)c(Nc4ccc(F)c(Cl)c4)c3c2)c2cn(C3CCN(C(C)(C)C)CC3)nn2)c1` [Example 623, (S)-N-(3-((1-(1-(tert-butyl)piperidin-4-yl)-1H-1,2,3-triazol-4-yl)((8-chloro-4-((3-chloro-4-fluorophenyl)amino)-3-cyanoquinolin-6-yl)amino)methyl)phenyl)-N-methylacetamide], the EC50 (commonly the midpoint of the concentration-response curve) in test [1] came out at 90 nM. Also, in test [2], the 50% inhibitory concentration (IC50) (usually the midpoint of a concentration-inhibition curve) was 1 nM.
In the case of `CC(=O)Nc1cccc([C@H](Nc2cc(Cl)c3ncc(C#N)c(Nc4ccc(F)c(Cl)c4)c3c2)c2cn(C3CCN(C(C)(C)C)CC3)nn2)c1` [Example 624, (S)-N-(3-((1-(1-(tert-butyl)piperidin-4-yl)-1H-1,2,3-triazol-4-yl)((8-chloro-4-((3-chloro-4-fluorophenyl)amino)-3-cyanoquinolin-6-yl)amino)methyl)phenyl)acetamide], the 50% effective concentration (EC50) in test [1] amounted to 266 nM. The IC50 in test [2] stood at 3 nM.
On to `N#Cc1cnc2c(Cl)cc(N[C@@H](c3ccccc3)c3cn(C4CCN(C5COC5)CC4)nn3)cc2c1Nc1ccc(Cl)c(Cl)c1F` [Example 625, (S)-8-chloro-4-((3,4-dichloro-2-fluorophenyl)amino)-6-(((1-(1-(oxetan-3-yl)piperidin-4-yl)-1H-1,2,3-triazol-4-yl)(phenyl)methyl)amino) quinoline-3-carbonitrile], for which the EC50 in test [1] stood at 1160 nM. Also, in test [2], the IC50 amounted to 116 nM.
On to `CC[C@@H](Nc1c(C#N)cnc2c(Cl)cc(N[C@H](c3ccccc3)c3c[nH]nn3)cc12)c1ccccc1` [Example 626, 8-chloro-6-(((R)-phenyl(1H-1,2,3-triazol-4-yl)methyl)amino)-4-(((R)-1-phenylpropyl)amino) quinoline-3-carbonitrile], for which the EC50 in test [1] was over 50000 nM. The IC50 in test [2] turned out to be 784 nM.
Turning to `CC[C@@H](Nc1c(C#N)cnc2c(Cl)cc(N[C@@H](c3ccccc3)c3c[nH]nn3)cc12)c1ccccc1` [Example 627, 8-chloro-6-(((S)-phenyl(1H-1,2,3-triazol-4-yl)methyl)amino)-4-(((R)-1-phenylpropyl)amino) quinoline-3-carbonitrile], in test [1], the EC50 was determined as 456 nM. Moreover, the IC50 in test [2] worked out at 16 nM.
As to `CC(C)(C)N1CCC(n2cc([C@@H](Nc3cc(Cl)c4ncc(C#N)c(Nc5cccc(Cl)c5F)c4c3)c3ccccc3)nn2)CC1` [Example 628, (S)-6-(((1-(1-(tert-butyl)piperidin-4-yl)-1H-1,2,3-triazol-4-yl)(phenyl)methyl)amino)-8-chloro-4-((3-chloro-2-fluorophenyl)amino)quinoline-3-carbonitrile], the EC50 in test [1] came to 109 nM. Further, the IC50 in test [2] came to 7 nM.
Regarding `CC[C@@H](Nc1c(C#N)cnc2c(Cl)cc(N[C@@H](c3ccccc3)c3cn(C4CCN(C(C)(C)C)CC4)nn3)cc12)c1ccccc1` [Example 629, 6-(((S)-(1-(1-(tert-butyl)piperidin-4-yl)-1H-1,2,3-triazol-4-yl)(phenyl)methyl)amino)-8-chloro-4-(((R)-1-phenylpropyl)amino)quinoline-3-carbonitrile], the 50% effective concentration (EC50) in test [1] was found to be 72 nM. Also, in test [2], the IC50 was 3 nM.
Turning to `Cn1ccnc1-c1cccc([C@H](Nc2cc(Cl)c3ncc(C#N)c(Nc4ccc(F)c(Cl)c4)c3c2)c2cn(C3CCN(C(C)(C)C)CC3)nn2)c1` [Example 630, (S)-6-(((1-(1-(tert-butyl)piperidin-4-yl)-1H-1,2,3-triazol-4-yl)(3-(1-methyl-1H-imidazol-2-yl)phenyl)methyl)amino)-8-chloro-4-((3-chloro-4-fluorophenyl)amino)quinoline-3-carbonitrile], in test [1], the EC50 was 1630 nM. In test [2], the IC50 was 3 nM.
For `N#Cc1cnc2c(Cl)cc(N[C@@H](c3ccc(Cl)cc3)c3c[nH]nn3)cc2c1Nc1ccc(F)c(F)c1F` [Example 631, (S)-8-chloro-6-(((4-chlorophenyl)(1H-1,2,3-triazol-4-yl)methyl)amino)-4-((2,3,4-trifluorophenyl)amino)quinoline-3-carbonitrile], in test [1], the EC50 is 1080 nM. Besides, the IC50 in test [2] turned out to be 166 nM.

(Values after patent US10316017B2, “COT modulators and methods of use thereof” (Gilead Sciences, Inc., priority 2015, dated 2019).)
